The values below come from PubChem BioAssay (NCI).

Holding throughout (experiment): NCI tumour cell line growth inhibition, 48 h
The subject of experiment [1] is OVCAR-3 ovarian.
Experiment [2] deals with HOP-62 NSCLC.
Experiment [3] concerns OVCAR-8 ovarian.
Experiment [4] relates to UACC-62 melanoma.
The test system of experiment [5] is COLO 205 colon.
Experiment [6] concerns HL-60(TB) leukemia.
Experiment [7] deals with SK-MEL-5 melanoma.
The test system of experiment [8] is MCF7 breast.
Experiment [9] has as its system MALME-3M melanoma.
The subject of experiment [10] is UACC-257 melanoma.

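Cells were grown in 96-well plates and exposed to each compound for 48 hours at five concentrations; endpoints were interpolated linearly between bracketing concentrations, or set to the highest concentration if not reached. GI50: concentration for 50% inhibition of growth. At the TGI there is no net growth.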 A value given as a limit tells only on which side of the number the result lay.

Regarding `CC[C@H](C)[C@H](NC(=O)C12CC(NC(C)=O)(C1)C2)C(=O)N(C)[C@H](C[C@@H](OC(C)=O)c1nc(C(=O)N[C@@H](Cc2ccccc2)C[C@H](C)C(=O)OC)cs1)C(C)C`, the GI50 in [1] was 0.0494 µM; in [2], 0.473 µM; in experiment [3] it was 0.519 µM; in experiment [4], 0.0735 µM; in [5], 0.0991 µM; in [6], 0.0522 µM. For the same compound, the results for the GI50 in [7], in experiment [8] and in experiment [10] were 0.0807 µM, 0.0489 µM and 7 µM, respectively. Further, the TGI in experiment [1] is 0.569 µM; in [2], more than 10.4 µM; in experiment [3], more than 16.7 µM; in experiment [4], more than 16.7 µM; in [5], 1.06 µM; in experiment [6], 0.21 µM. Besides, the TGI in experiment [7] was 2.76 µM; in experiment [8], more than 16.7 µM; in experiment [9], more than 16.7 µM; in experiment [10], more than 16.7 µM.

In the case of `COc1ccc(-c2cncn2-c2cc(OC)c(OC)c(OC)c2)cc1F`, the GI50 is 0.0219 µM in experiment [1]; less than 0.0365 µM in [2]; less than 0.0488 µM in [3]; less than 0.0117 µM in experiment [4]; less than 0.0122 µM in experiment [5]; 0.0103 µM in experiment [6]. Besides, the GI50 in experiment [7] is less than 0.01 µM; in experiment [8] it was less than 0.01 µM; in experiment [9], 49 µM. Also, the TGI in experiment [1] is 22.2 µM; in [2], more than 100 µM; in [3], more than 100 µM; in [4], more than 100 µM; in experiment [6], less than 0.0288 µM; in [7], 13.1 µM. Further, the TGI in [8] and in [9] was more than 100 µM each time.

Take `c1cnc2c(c1)Nc1cnncc1S2`: the TGI in experiment [1], in experiment [2], in [3], in [4], in experiment [5] and in experiment [6] was more than 100 µM throughout. Moreover, the TGI in experiment [7], in [8], in [9] and in experiment [10] was more than 100 µM each time.

Take `N#Cc1c(Oc2ccc(F)c(NC(=O)Cc3cccc(C(F)(F)F)c3)c2)ccc2nc(NC(=O)C3CC3)sc12`: the GI50 in [1] is 2.3 µM; in experiment [2], 0.472 µM; in experiment [3] it was 0.731 µM; in [4], 0.0262 µM; in experiment [5], 0.0299 µM; in experiment [6], 0.48 µM. The GI50 in experiment [7] is 0.206 µM; in experiment [8], 1.11 µM; in experiment [9], 0.0101 µM; in [10] it was 0.0253 µM. The TGI was more than 100 µM in experiment [1]; more than 100 µM in experiment [2]; more than 100 µM in experiment [3]; 2.63 µM in experiment [5]; more than 100 µM in experiment [6]; 8.6 µM in experiment [7]. Moreover, the TGI is more than 100 µM in [8], 0.0476 µM in [9] and 0.203 µM in experiment [10].

As for `O=C1c2cccc3cc([N+](=O)[O-])cc(c23)C(=O)N1O`, the TGI in experiment [1] is more than 100 µM; in experiment [2], more than 100 µM; in experiment [3], more than 100 µM; in experiment [4], 81.4 µM; in experiment [5], more than 100 µM; in experiment [6] it was more than 100 µM. In addition, the TGI is more than 100 µM in [7], 91.8 µM in experiment [8], more than 100 µM in [9] and more than 100 µM in [10].

As to `O=[N+]([O-])c1ccc(-c2ccccc2)c([As](=O)(O)O)c1`, the GI50 was 10.4 µM in experiment [1]; 3.11 µM in experiment [2]; 22.6 µM in experiment [3]; 22.5 µM in experiment [4]; 12.8 µM in experiment [5]; 43.5 µM in experiment [6]. In addition, the GI50 in [7] was 40.6 µM; in experiment [8], 3.75 µM; in [9] it was 11.6 µM; in experiment [10], 21.7 µM. Besides, the TGI in experiment [1] was 29.3 µM; in experiment [2], 18 µM; in experiment [3] it was more than 100 µM; in experiment [4] it was more than 100 µM; in [5], 27.4 µM; in experiment [6], more than 100 µM. Moreover, the TGI in experiment [7] is more than 100 µM; in experiment [8], 16.1 µM; in [9] it was 34.6 µM; in experiment [10], more than 100 µM.

Regarding `Brc1ccc(Br)nn1`, the GI50 was 4.02 µM in experiment [2]; 2.4 µM in experiment [3]; 1.88 µM in experiment [4]; 2.12 µM in experiment [5]; 1.22 µM in experiment [6]; 1.49 µM in experiment [7]. Besides, the GI50 in experiment [8] is 1.21 µM; in experiment [9], 1.75 µM; in experiment [10], 1.72 µM. Further, the TGI was determined as 10.1 µM in experiment [2]; 9.26 µM in experiment [3]; 6.24 µM in experiment [4]; 3.77 µM in experiment [5]; 4.85 µM in [6]; 3.85 µM in [7]. Also, the TGI in experiment [8] came out at 2.64 µM; in experiment [9], 3.7 µM; in experiment [10] it was 3.89 µM.

As for `CN(NC(=O)CC(=O)NN(C)C(=S)c1ccc(Cl)cc1)C(=S)c1ccc(Cl)cc1`, the GI50 in [1] is 13 µM; in experiment [2], 20.5 µM; in experiment [3], 23.7 µM; in experiment [4], 11.2 µM; in [5], 23 µM; in experiment [6], 25.1 µM. The values for the GI50 in experiment [7], in experiment [8] and in experiment [9] were 15.4 µM, 18 µM and 13.2 µM, respectively. The TGI in experiment [1] was 46.4 µM; in [2], 70.8 µM; in experiment [3], more than 100 µM; in experiment [4] it was 30.2 µM; in experiment [5], 48.5 µM; in experiment [6], 71.7 µM. For the same compound, the values for the TGI in [7], in experiment [8] and in experiment [9] were 46 µM, more than 100 µM and 52 µM, respectively.

`C[C@@H]1CN2[C@H]3[C@@H]1CC[C@]31CCC(=O)O[C@]1(C)[C@@H]1CC[C@H]3CCC=C3[C@@H]12`: the GI50 in experiment [1], in [2], in experiment [3], in experiment [4], in experiment [5] and in experiment [6] was more than 70 µM throughout. In addition, the GI50 in experiment [7], in [8] and in experiment [9] was more than 70 µM each time. The TGI in experiment [1], in experiment [2], in experiment [3], in experiment [4], in experiment [5] and in experiment [6] was more than 70 µM throughout. Further, the TGI in experiment [7], in experiment [8] and in [9] was more than 70 µM throughout.
